This note sets out measurements from patent US8557816B2, “Aurora kinase modulators and method of use” (Amgen Inc., priority 2007, dated 2013).

One assay addresses T1, AuroraB (Homo sapiens, UniProt Q96GD4).
T1 construct: 20 μL of AuroraB FL H is for a final volume of 41 μL; His
As to the kind of experiment: AuroraB Homogeneous Time Resolved Fluorescent (HTRF) kinase assay. The assay is classed as biochemical. Particulars: average; read-out: AurB_IC50_IP (uM Avg). An outline of the steps:
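Read-out is time-resolved FRET between europium anti-phospho-H3 antibody and streptavidin-APC, added in EDTA buffer to stop the reaction and equilibrated about 60 min (ex 320, em 615 and 655 nm). Preceding reaction: ~90 min, full-length enzyme, ATP, 0.1 μM biotin-Histone H3 substrate, Mg/Mn HEPES buffer pH 7.5.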
On the technique in general: TR-FRET usually uses a lanthanide donor and a delayed reading to cut background.

Another assay concerns HCT116 xenografts. As to the kind of experiment: HCT116 xenograft model (human colon carcinoma), tumor growth inhibition. The assay is classed as in vivo. To be noted: 5.0 mg/kg, 2-day dosing scheduling QD, p.o., athymic nude mice. The protocol: Compounds of the present invention were evaluated in HCT116 xenografts, a human colon carcinoma model. […] These cells were grown as subcutaneous xenografts in female HSD (Harlan Sprague Dawley) athymic nude mice. Mice were implanted subcutaneously with 2×10^6 cells in matrigel on day 0. Treatment was initiated on day 10 with compounds of the invention at the indicated dosage p.o for 2 consecutive-days per week (intermittent schedule, such as 2 days on-5 days off) or 7-days (continuous schedule) per week, for a selected number of weeks. For example, in one study, animals were dosed with selected compound samples BID on an intermittent dosing paradigm of two days on and then 5 days off per week, for four weeks (four dosing cycles) at 15, 7.5, and 3.75 mg/kg. Tumor growth inhibition and body weights were measured throughout the study and compared to the vehicle control group. All groups were provided nutritional supplements on a daily basis throughout the study to maintain body weight. Terminal neutrophil counts were taken at the end of this study. Measures were made by ANOVA followed by Scheffe post hoc test using StatView software v5.0.1.
10 Flasks containing a total of 7.68×10^8 HCT116 tumor cells were harvested for tumor cell implantation. HCT 116 cells were re-suspended to a cell concentration of about 2×10^7 cells/ml in serum-free McCoys 5A media+50% matrigel. Cell viability was measured to be about 99.3%.
Female Athymic Nude mice approximately 14 weeks of age (Harlan Sprague Dawley) were used for the experiment. Mice were housed five per filter-capped cage in sterile housing in an environmentally controlled room (temperature 23±2° C., relative humidity 50±20%) on a 12-hr light/dark cycle. […] On Day 9, tumor-bearing mice were measured and randomized into five groups (n=10). […] During the dosing period, mouse tumor volumes were measured with a digital caliper and weighed twice per week. Tumor volumes were calculated as follows: Tumor Volume (mm^3) [(W^2×L)/2] where width (W) is defined as the smaller of the 2 measurements and length (L) is defined as the larger of the 2 measurements.
(Xenograft models place foreign cells or tissue in a host animal.)

The target in a further assay is T2, AuroraA-TPX2 (Homo sapiens, UniProt O14965).
T2 construct: 20 μL of AuroraA-TPX2 KD GST for a final volume of about 41 μL; GST
T2 sequence (O14965 133-383 limits assumed): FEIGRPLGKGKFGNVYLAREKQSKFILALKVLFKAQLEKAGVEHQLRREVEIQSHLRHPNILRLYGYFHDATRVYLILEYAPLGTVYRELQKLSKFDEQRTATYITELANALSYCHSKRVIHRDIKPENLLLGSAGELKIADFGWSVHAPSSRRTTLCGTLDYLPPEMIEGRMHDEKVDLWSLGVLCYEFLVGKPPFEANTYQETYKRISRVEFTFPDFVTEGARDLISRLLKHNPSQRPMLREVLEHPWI
T2 sequence (Q9ULW0 1-43 partner limits assumed): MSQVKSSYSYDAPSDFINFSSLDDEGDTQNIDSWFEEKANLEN
As to the kind of experiment: AuroraA-TPX2 Homogeneous Time Resolved Fluorescent (HTRF) kinase assay. It counts as biochemical. Particulars: average; read-out: AurA_IC50_IP (uM Avg). In short, it runs like this:
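HTRF read-out (Eu 615 nm to APC 655 nm) of phosphorylated biotin-PLK, detected with 0.02 nM europium anti-phosphoPLK antibody and 0.0005 mg/mL SA-APC after overnight equilibration.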

T1 sequence (Q96GD4 whole entry): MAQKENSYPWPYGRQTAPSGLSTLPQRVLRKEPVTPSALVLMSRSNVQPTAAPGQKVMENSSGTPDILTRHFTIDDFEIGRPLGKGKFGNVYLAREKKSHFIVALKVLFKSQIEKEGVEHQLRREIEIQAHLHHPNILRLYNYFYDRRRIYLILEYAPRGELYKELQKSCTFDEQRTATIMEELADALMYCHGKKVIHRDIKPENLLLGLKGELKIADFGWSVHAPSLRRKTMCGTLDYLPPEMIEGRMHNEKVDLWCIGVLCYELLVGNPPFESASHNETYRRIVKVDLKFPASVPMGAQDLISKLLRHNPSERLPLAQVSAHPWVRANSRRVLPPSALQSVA

With `COc1cnc2c(Sc3ccc(Nc4nnc(-c5ccccc5)c5ccccc45)cc3)ccnc2c1` [Example 207, N-(4-((7-(methyloxy)-1,5-naphthyridin-4-yl)thio)phenyl)-4-phenyl-1-phthalazinamine], the IC50 is 0.009 µM on AuroraB and 0.06 µM on AuroraA-TPX2. Also, the “inhibition of tumor growth” value in the assay with HCT116 xenografts is roughly 67%.
